Structures can show the parent of a compound that is named as a salt.

The test deals with T1, recombinant guanylate cyclase reporter cell line (Rattus norvegicus, UniProt P19686+P20595).
T1 construct: expressed in transfected cells; host or cells: recombinant reporter cell line
T1 sequence (P19686 1-690): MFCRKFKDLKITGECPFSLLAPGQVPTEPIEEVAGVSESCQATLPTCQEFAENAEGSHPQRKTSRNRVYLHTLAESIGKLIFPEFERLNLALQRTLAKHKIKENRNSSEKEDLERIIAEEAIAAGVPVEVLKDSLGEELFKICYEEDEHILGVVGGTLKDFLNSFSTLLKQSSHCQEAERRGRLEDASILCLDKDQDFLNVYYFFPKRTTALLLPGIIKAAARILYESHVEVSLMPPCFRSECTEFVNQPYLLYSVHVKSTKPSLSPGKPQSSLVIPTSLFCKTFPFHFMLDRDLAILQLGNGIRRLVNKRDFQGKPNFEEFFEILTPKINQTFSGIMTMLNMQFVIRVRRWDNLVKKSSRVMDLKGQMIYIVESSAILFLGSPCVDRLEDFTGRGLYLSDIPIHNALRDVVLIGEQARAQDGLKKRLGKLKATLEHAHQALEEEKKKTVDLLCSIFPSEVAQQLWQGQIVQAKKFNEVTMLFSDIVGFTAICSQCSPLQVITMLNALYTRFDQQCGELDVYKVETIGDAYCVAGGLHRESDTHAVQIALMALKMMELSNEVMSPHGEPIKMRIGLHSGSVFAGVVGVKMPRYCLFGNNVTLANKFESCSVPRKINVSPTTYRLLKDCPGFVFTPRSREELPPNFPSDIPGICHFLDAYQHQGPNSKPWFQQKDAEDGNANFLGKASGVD
T1 sequence (P20595 1-619): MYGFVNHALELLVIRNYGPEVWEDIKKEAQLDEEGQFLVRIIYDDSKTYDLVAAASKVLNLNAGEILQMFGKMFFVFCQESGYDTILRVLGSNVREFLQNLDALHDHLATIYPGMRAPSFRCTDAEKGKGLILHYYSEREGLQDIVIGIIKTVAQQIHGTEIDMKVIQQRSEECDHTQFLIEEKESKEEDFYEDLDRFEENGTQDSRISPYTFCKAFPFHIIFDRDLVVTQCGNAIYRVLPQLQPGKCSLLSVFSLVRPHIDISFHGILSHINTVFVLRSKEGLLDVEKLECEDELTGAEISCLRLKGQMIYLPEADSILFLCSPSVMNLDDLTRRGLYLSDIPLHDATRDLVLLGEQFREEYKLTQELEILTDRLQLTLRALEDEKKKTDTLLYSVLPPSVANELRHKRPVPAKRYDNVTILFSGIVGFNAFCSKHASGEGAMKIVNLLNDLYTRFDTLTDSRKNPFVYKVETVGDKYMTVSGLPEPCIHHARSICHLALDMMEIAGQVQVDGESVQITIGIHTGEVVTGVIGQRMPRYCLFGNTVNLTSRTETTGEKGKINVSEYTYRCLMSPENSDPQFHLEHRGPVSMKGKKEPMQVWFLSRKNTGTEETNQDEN
As to the kind of experiment: Effect on a recombinant guanylate cyclase reporter cell line. Conditions: MEC = minimum effective concentration; in some cases mean values for individual determinations. Type of test: cell-based. As to the method:
B-2. Effect on a Recombinant Guanylate Cyclase Reporter Cell Line
The cellular effect of the inventive compounds is determined using a recombinant guanylate cyclase reporter cell line, as described in F. Wunder et al., Anal. Biochem. 339, 104-112 (2005).
Representative MEC values (MEC=minimum effective concentration) for the inventive compounds are shown in the table below (in some cases as mean values for individual determinations): […]
On to `Cc1nc(C)n(Cc2nnc(-c3c(C)nc4c(OCC5CCCCC5)cccn34)o2)n1` [Example 72], for which the MEC worked out at 3.0 µM.

As to `COC(=O)Cn1cc(-c2c(C)nc3c(OCc4c(F)cccc4F)cc(C)cn23)cn1` [Example 103, methyl (4-{8-[(2,6-difluorobenzyl)oxy]-2,6-dimethylimidazo[1,2-a]pyridin-3-yl}-1H-pyrazol-1-yl)acetate], the MEC turned out to be 0.03 µM.

As for `Cc1nc2c(OCc3c(F)cccc3F)cccn2c1-c1csc2ccccc12` [Example 35, 3-(1-benzothiophen-3-yl)-8-[(2,6-difluorobenzyl)oxy]-2-methylimidazo[1,2-a]pyridine], the MEC came to 3.0 µM.

With `Cc1nc2c(OCc3c(F)cccc3F)cccn2c1-c1cccc(NS(C)(=O)=O)c1` [Example 48], the MEC was 0.2 µM.

As to `Cc1nc2c(OCc3c(F)cccc3F)cccn2c1-c1cnc2ccccc2c1` [Example 19, 3-{8-[(2,6-difluorobenzyl)oxy]-2-methylimidazo[1,2-a]pyridin-3-yl}quinoline], the MEC came to 1.0 µM.

Turning to `Cc1nc2c(OCc3c(F)cccc3F)cccn2c1-c1ccnn1C` [Example 11, 8-[(2,6-difluorobenzyl)oxy]-2-methyl-3-(1-methyl-1H-pyrazol-5-yl)imidazo[1,2-a]pyridine], the MEC was determined as 3.0 µM.

On to `Cc1cc(OCc2c(F)cccc2F)c2nc(C)c(-c3cnn(CC(=O)NC4CC4)c3)n2c1` [Example 113, N-Cyclopropyl-2-(4-{8-[(2,6-difluorobenzyl)oxy]-2,6-dimethylimidazo[1,2-a]pyridin-3-yl}-1H-pyrazol-1-yl)acetamide], for which the MEC came to 0.03 µM.

Regarding `Cc1nc2c(OCc3c(F)cccc3F)cccn2c1-c1ccc(CN(C)C)cc1` [Example 26, 1-(4-{8-[(2,6-difluorobenzyl)oxy]-2-methylimidazo[1,2-a]pyridin-3-yl}phenyl)-N,N-dimethylmethanamine], the MEC is 1.0 µM.

With `Cc1cc(OCc2c(F)cccc2F)c2nc(C)c(-c3nccc(C(=O)NC4CC4)n3)n2c1` [Example 81, N-Cyclopropyl-2-{8-[(2,6-difluorobenzyl)oxy]-2,6-dimethylimidazo[1,2-a]pyridin-3-yl}pyrimidine-4-carboxamide trifluoroacetate], the MEC came to 3.0 µM.

Turning to `Cc1nc2c(OCc3c(F)cccc3F)cccn2c1-c1cn[nH]c1` [Example 45, 8-[(2,6-difluorobenzyl)oxy]-2-methyl-3-(1H-pyrazol-4-yl)imidazo[1,2-a]pyridine], the MEC was 0.1 µM.

Turning to `Cc1cc(OCc2c(F)cccc2F)c2nc(C)c(-c3cnn(CCC(=O)NC4CC4)c3)n2c1` [Example 114, N-Cyclopropyl-3-(4-{8-[(2,6-difluorobenzyl)oxy]-2,6-dimethylimidazo[1,2-a]pyridin-3-yl}-1H-pyrazol-1-yl)propanamide], the MEC was found to be 0.3 µM.

As to `Cc1nc2c(OCc3c(F)cccc3F)cccn2c1-c1cccc(Br)c1` [Example 13, 3-(3-bromophenyl)-8-[(2,6-difluorobenzyl)oxy]-2-methylimidazo[1,2-a]pyridine], the MEC came out at 0.3 µM.

As for `Cc1nc2c(OCc3c(F)cccc3F)cccn2c1-c1ccnc(-c2ccc(F)cc2)c1` [Example 59, 8-[(2,6-Difluorobenzyl)oxy]-3-[2-(4-fluorophenyl)pyridin-4-yl]-2-methylimidazo[1,2-a]pyridine], the MEC was determined as 1.0 µM.

For the molecule `CCC(C)c1nnc(-c2c(C)nc3c(OCC4CCCCC4)cccn23)o1` (stereo not drawn) [Example 70], the MEC worked out at 3.0 µM.

Turning to `Cc1nc2c(OCc3c(F)cccc3F)cccn2c1-c1ccc2c(c1)COC2=O` [Example 23, 5-{8-[(2,6-difluorobenzyl)oxy]-2-methylimidazo[1,2-a]pyridin-3-yl}-2-benzofuran-1(3H)-one], the MEC amounted to 1.0 µM.

For the molecule `Cc1nc2c(OCC3CCCCC3)cccn2c1-c1nnc(-c2ncccn2)o1` [Example 62, 8-(Cyclohexylmethoxy)-2-methyl-3-[5-(pyrimidin-2-yl)-1,3,4-oxadiazol-2-yl]imidazo[1,2-a]pyridine], the MEC worked out at 3.0 µM.

As for `Cc1nc2c(OCc3c(F)cccc3F)cccn2c1-c1cccc(O)c1` [Example 8, 3-{8-[(2,6-difluorobenzyl)oxy]-2-methylimidazo[1,2-a]pyridin-3-yl}phenol], the MEC was 0.1 µM.

Regarding `Cc1nc2c(OCc3c(F)cccc3F)cccn2c1-c1ccc2[nH]ncc2c1` [Example 54], the MEC came to 1.0 µM.

Source of the values: US9776997B2, “3-aryl-substituted imidazo[1,2-A]pyridines and their use” (Bayer Pharma Aktiengesellschaft, priority 2013, dated 2017).
